Assay results from ChEMBL document CHEMBL1130513, “New hepatoprotective saponins, bupleurosides III, VI, IX, and XIII, from Chinese Bupleuri Radix: Structure-requirements for the cytoprotective activity in primary cultured rat hepatocytes” (1997).

Key:
Format in all cases: functional
Details in all cases: Hepatocyte
[1] = organism: Rattus norvegicus; experiment: In vitro inhibitory effect on D-Galactosamine induced cytotoxicity in primary cultured rat hepatocytes at 30 ug/mL
[2] = organism: Rattus norvegicus; experiment: In vitro inhibitory effect on D-Galactosamine induced cytotoxicity in primary cultured rat hepatocytes at 3 ug/mL
[3] = organism: Rattus norvegicus; experiment: In vitro inhibitory effect on D-Galactosamine induced cytotoxicity in primary cultured rat hepatocytes at 0.3 ug/mL
[4] = organism: Rattus norvegicus; experiment: In vitro inhibitory effect on D-Galactosamine induced cytotoxicity in primary cultured rat hepatocytes at 10 ug/mL
[5] = organism: Rattus norvegicus; experiment: In vitro inhibitory effect on D-Galactosamine induced cytotoxicity in primary cultured rat hepatocytes at 1 ug/mL

SMILES | inhibition at 30 µg/mL [1] | inhibition at 3 µg/mL [2] | inhibition at 0.3 µg/mL [3] | inhibition at 10 µg/mL [4] | inhibition at 1 µg/mL [5]
C[C@@H]1O[C@@H](O[C@@H]2[C@H](O)[C@@H](O)[C@H](O[C@H]3CC[C@@]4(C)C(CC[C@]5(C)C4CC=C4C6CC(C)(C)CC[C@]6(CO)CC[C@]45C)C3(C)C)O[C@@H]2CO[C@@H]2O[C@H](CO)[C@@H](O)[C@H](O)[C@H]2O)[C@H](O)[C@H](O)[C@H]1O (stereo not given in full) [BUPLEUROSIDE XI] | -0.3% | -1% | -0.4% | 0.3% | 1.6%
C[C@H]1O[C@@H](O[C@H]2CC[C@@]3(C)C(CC[C@]4(C)C3C=C[C@]35OC[C@@]6(CCC(C)(C)CC63)[C@@H](O)C[C@]54C)[C@]2(C)CO)[C@H](O)[C@@H](O[C@@H]2O[C@H](CO)[C@@H](O)[C@H](O)[C@H]2O)[C@H]1O (stereo not given in full) | -14.8% | -11.6% | -3.6% | -12.7% | -7.1%
C[C@H]1O[C@@H](O[C@H]2CC[C@@]3(C)C(CC[C@]4(C)C3C=C[C@]35OC[C@@]6(CCC(C)(C)CC63)[C@@H](O)C[C@]54C)[C@]2(C)CO)[C@H](O)[C@@H](O[C@@H]2O[C@H](CO)[C@@H](O)[C@H](O)[C@H]2O[C@@H]2O[C@H](CO)[C@@H](O)[C@H](O)[C@H]2O)[C@H]1O (stereo not given in full) [BUPLEUROSIDE I] | -12.2% | -7.8% | -5.4% | -7.8% | -6.5%
C[C@H]1O[C@@H](OC2CC[C@@]3(C)C(CC[C@]4(C)C3C=CC3=C5C[C@](C)(C(=O)O)CC[C@]5(CO)[C@H](O)C[C@]34C)[C@]2(C)CO)[C@H](O)[C@@H](O[C@@H]2O[C@H](CO)[C@@H](O)[C@H](O)[C@H]2O)[C@H]1O (stereo not given in full) [BUPLEUROSIDE V] | 4.5% | 1.4% | 1.4% | 3.8% | 1.5%
C[C@H]1O[C@@H](OC2CC[C@@]3(C)C(CC[C@]4(C)C3C=C[C@]35OC[C@@]6(CCC(C)(C)CC63)[C@@H](O)C[C@]54C)C2(C)C)[C@H](O)[C@@H](O[C@@H]2O[C@H](CO)[C@@H](O)[C@H](O)[C@H]2O)[C@H]1O (stereo not given in full) | -30.6% | -26.9% | -12% | -29.2% | -17.1%
CC1(C)CC[C@]2(C(=O)O)CC[C@]3(C)C(=CCC4[C@@]5(C)CC[C@H](O[C@@H]6O[C@H](CO)[C@H](O)[C@H](O[C@@H]7OC[C@@H](O)[C@@H](O)[C@@H]7O[C@@H]7O[C@H](CO)[C@@H](O)[C@H](O)[C@H]7O)[C@H]6O)C(C)(C)C5CC[C@]43C)C2C1 (stereo not given in full) [BUPLEUROSIDE VII1] | -1.4% | -0.9% | 1.5% | -1.4% | 0.1%
C[C@@H]1O[C@@H](O[C@@H]2[C@H](O)[C@@H](O)[C@H](O[C@H]3CC[C@@]4(C)C(CC[C@]5(C)C4C=C[C@]46OC[C@@]7(CCC(C)(C)CC74)[C@@H](O)C[C@]65C)C3(C)C)O[C@@H]2CO[C@@H]2O[C@H](CO)[C@@H](O)[C@H](O)[C@H]2O)[C@H](O)[C@H](O)[C@H]1O (stereo not given in full) [SAIKOSAPONIN C] | -1% | -1.9% | -1.5% | -1% | -0.7%
C[C@@H]1O[C@@H](O[C@@H]2[C@H](O)[C@@H](O)[C@H](O[C@H]3CC[C@@]4(C)C(CC[C@]5(C)C4C(=O)C=C4C6CC(C)(C)CC[C@]6(CO)[C@@H](O)C[C@]45C)C3(C)C)O[C@@H]2CO[C@@H]2O[C@H](CO)[C@@H](O)[C@H](O)[C@H]2O)[C@H](O)[C@H](O)[C@H]1O (stereo not given in full) [BUPLEUROSIDE VII] | 3.2% | 4.3% | -0.6% | 2.2% | 2.5%
CO[C@@H]1C=C2C3CC(C)(C)CC[C@]3(CO)[C@H](O)C[C@@]2(C)[C@]2(C)CCC3[C@](C)(CC[C@H](O[C@@H]4O[C@H](C)[C@H](O)[C@H](O[C@@H]5O[C@H](CO)[C@@H](O)[C@H](O)[C@H]5O[C@@H]5O[C@H](CO)[C@@H](O)[C@H](O)[C@H]5O)[C@H]4O)[C@@]3(C)CO)C12 (stereo not given in full) | -2.9% | -0.4% | 1.7% | -2.2% | 0.3%
C[C@@H]1O[C@@H](O[C@H]2[C@@H](O)[C@@H](CO[C@@H]3O[C@H](CO)[C@@H](O)[C@H](O)[C@H]3O)O[C@@H](OC3CC[C@@]4(C)C(CC[C@]5(C)C4C=CC4=C6C[C@@](C)(CO)CC[C@]6(CO)[C@H](O)C[C@]45C)[C@]3(C)CO)[C@@H]2O)[C@H](O)[C@H](O)[C@H]1O (stereo not given in full) [BUPLEUROSIDE XII] | 0.8% | -0.8% | 0.1% | 2% | 0.3%
C[C@@H]1O[C@@H](O[C@@H]2[C@H](O)[C@@H](O)[C@H](OC3CC[C@@]4(C)C(CC[C@]5(C)[C@@H]4CC=C4C6CC(C)(C)CC[C@]6(CO)[C@@H](O)C[C@]45C)C3(C)C)O[C@@H]2CO[C@@H]2O[C@H](CO)[C@@H](O)[C@H](O)[C@H]2O)[C@H](O)[C@H](O)[C@H]1O (stereo not given in full) | -0.7% | -2.9% | 3.1% | -2.9% | 0.2%
C[C@@H]1O[C@@H](O[C@@H]2[C@H](O)[C@@H](O)[C@H](OC3CC[C@@]4(C)C(CC[C@]5(C)[C@@H]4[C@H](O)C=C4C6CC(C)(C)CC[C@]6(CO)[C@@H](O)C[C@]45C)C3(C)C)O[C@@H]2CO[C@@H]2O[C@H](CO)[C@@H](O)[C@H](O)[C@H]2O)[C@H](O)[C@H](O)[C@H]1O (stereo not given in full) | -6.5% | -3.4% | -2.3% | -3.2% | -5.1%
CO[C@@H]1C=C2C3CC(C)(C)CC[C@]3(CO)[C@H](O)C[C@@]2(C)[C@]2(C)CCC3[C@](C)(CCC(O[C@@H]4O[C@H](C)[C@H](O)[C@H](O[C@@H]5O[C@H](CO)[C@@H](O)[C@H](O)[C@H]5O)[C@H]4O)[C@@]3(C)CO)C12 (stereo not given in full) | -9.9% | -6.9% | 3.6% | -8.3% | -4%
C[C@H]1O[C@@H](O[C@H]2CC[C@@]3(C)C(CC[C@]4(C)C3C=C[C@]35OC[C@@]6(CCC(C)(C)CC63)[C@H](O)C[C@]54C)[C@]2(C)CO)[C@H](O)[C@@H](O[C@@H]2O[C@H](CO)[C@@H](O)[C@H](O)[C@H]2O)[C@H]1O (stereo not given in full) | -5.3% | -4.2% | 3.9% | -4.3% | 2.3%
CO[C@@H]1C=C2C3CC(C)(C)CC[C@]3(CO)[C@@H](O)C[C@@]2(C)[C@]2(C)CCC3C(C)(C)[C@@H](O[C@@H]4O[C@H](C)[C@H](O)[C@H](O[C@@H]5O[C@H](CO)[C@@H](O)[C@H](O)[C@H]5O)[C@H]4O)CC[C@]3(C)C12 (stereo not given in full) | 75% | 75.5% | 37.2% | 73.3% | 64.9%
CC1(C)CC[C@@]2(CO)C(C1)C1=CC(=O)C3[C@@]4(C)CC[C@H](O)[C@@](C)(CO)C4CC[C@@]3(C)[C@]1(C)C[C@@H]2O (stereo not given in full) | 4.9% | 0% | 0.6% | 0.4% | 0.6%
CO[C@@H]1C=C2C3CC(C)(C)CC[C@]3(CO)[C@@H](O)C[C@@]2(C)[C@]2(C)CCC3[C@](C)(CCC(O[C@@H]4O[C@H](C)[C@H](O)[C@H](O[C@@H]5O[C@H](CO)[C@@H](O)[C@H](O)[C@H]5O)[C@H]4O)[C@@]3(C)CO)C12 (stereo not given in full) | 72.1% | 56.4% | 8.7% | 70.4% | 13.9%
C[C@H]1O[C@@H](OC2CC[C@@]3(C)C(CC[C@]4(C)C3C=CC3=C5CC(C)(C)CC[C@]5(CO)[C@@H](O)C[C@]34C)[C@]2(C)CO)[C@H](O)[C@@H](O[C@@H]2O[C@H](CO)[C@@H](O)[C@H](O)[C@H]2O)[C@H]1O (stereo not given in full) | -5.1% | 4.3% | 0.1% | 8.7% | -1.4%
CO[C@@H]1C=C2C3CC(C)(C)CC[C@]3(CO)[C@@H](O)C[C@@]2(C)[C@]2(C)CCC3[C@](C)(CCC(O[C@@H]4O[C@H](CO[C@@H]5O[C@H](CO)[C@@H](O)[C@H](O)[C@H]5O)[C@H](O[C@@H]5O[C@@H](C)[C@H](O)[C@@H](O)[C@H]5O)[C@H](O)[C@H]4O)[C@@]3(C)CO)C12 (stereo not given in full) | 4.8% | 3.5% | 1.5% | 2.9% | 1.2%
CO[C@@H]1C=C2C3CC(C)(C)CC[C@]3(CO)[C@@H](O)C[C@@]2(C)[C@]2(C)CCC3C(C)(C)C(O[C@@H]4O[C@H](CO[C@@H]5O[C@H](CO)[C@@H](O)[C@H](O)[C@H]5O)[C@H](O[C@@H]5O[C@@H](C)[C@H](O)[C@@H](O)[C@H]5O)[C@H](O)[C@H]4O)CC[C@]3(C)[C@@H]12 (stereo not given in full) | 8.1% | 4.5% | 10.3% | 11.1% | 9.7%
C[C@H]1O[C@@H](OC2CC[C@@]3(C)C(CC[C@]4(C)C3C=CC3=C5CC(C)(C)CC[C@]5(CO)[C@H](O)C[C@]34C)[C@]2(C)CO)[C@H](O)[C@@H](O[C@@H]2O[C@H](CO)[C@@H](O)[C@H](O)[C@H]2O)[C@H]1O (stereo not given in full) | 8.4% | 5.3% | 2.7% | 5.5% | 6.1%
C[C@@H]1O[C@@H](O[C@H]2[C@@H](O)[C@@H](CO[C@@H]3O[C@H](CO)[C@@H](O)[C@H](O)[C@H]3O)O[C@@H](OC3CC[C@@]4(C)C(CC[C@]5(C)C4C=CC4=C6CC(C)(C)CC[C@]6(CO)[C@H](O)C[C@]45C)[C@]3(C)CO)[C@@H]2O)[C@H](O)[C@H](O)[C@H]1O (stereo not given in full) [BUPLEUROSIDE X] | 2.7% | 4.6% | 2.9% | 3.4% | 3.9%
